# Where two headings read alike, the source gives them in different places.
# Key:
# c-myc protein = test: Immunodetection of protein c-myc in HGC-27 cell lysates (Western blot); format: cell-based, human; conditions: 50 μmol · l^−1, 24 hour incubation, normalized to β-actin
# Method: Determination of changes in c-myc protein expression (transcription factor) in cell lysates prepared from tumor cell line HGC-27 after treatment with test helquats (Tab. 7) was carried out by immunodetection after separation of proteins according to their size by gel electrophoresis (SDS-PAGE) and blotting.
# To determine the influence helquats on expression of c-myc protein, the cells were cultured under standard conditions and in the exponential growth phase were seeded into flasks at a density of 25,000 cells/cm^2. The next day selected helquats were added at a concentration of 50 μmol·l^−1. After 24 hour incubation, the cell pellets were obtained and, after addition of RIPA buffer with protease inhibitors (PrIC) and phosphatases (PhIC) (for composition see Tab. 8) cell lysates were prepared. 150 μl of RIPA buffer was used for 10^7 cells. Protein concentrations in the lysates were measured by BCA method. Separation of proteins in the lysates was carried out on a 12% denaturing polyacrylamide gel. The separated proteins were transferred to PVDF membrane by Western blotting.
# Incubation with primary mouse monoclonal antibody against the protein c-myc (dilution 1:1000 in “SignalBoost” reagent) was carried out overnight at 4° C., and then with the primary mouse anti-β-actin (1:5000 dilution in 5% milk in TBS-T buffer) at room temperature for 2 hours. Subsequently, the secondary horse monoclonal antibody conjugated to horseradish peroxidase (diluted 1:2000 in 5% milk in TBS-T buffer) binding to mouse IgG antibody was applied. C-myc proteins and β-actin bound to the membrane were visualized using detection kit (SuperSignal® West Femto Maximum Sensitivity Substrate, Cat. No. 34095, Thermo Fisher Scientific, Inc., USA) in the chemiluminescence detection system ImageQuant LAS 4000 Mini (Cat. No. 28-9558-13, GE Healthcare Life Sciences, USA). The amount of protein was quantified by densitometry in Quantity One software. The amount of c-myc in the samples was normalized to β-actin, and subsequently related to a control sample.
# CCRF-CEM = test: XTT cytotoxicity/proliferation assay, CCRF-CEM; format: cell-based; conditions: Homo sapiens, CCRF-CEM
# Method: To assess the antiproliferative effects of the tested substances in vitro, tumor cell line CCRF-CEM derived from acute lymphoblastic leukemia and normal (healthy) HUVEC endothelial cells from umbilical vein were used. Both of these cell lines were cultured under optimal conditions for their growth in the appropriate medium in plastic bottles or plastic Petri dishes of various sizes (TPP, BD Biosciences) at 37° C., 5% CO2 and 95% humidity. HUVEC cells were purchased from BD Biosciences. CCRF-CEM cell line was obtained from ATCC/LGC Standards (American Type Cell Collection).
# Suspension cell line CCRF-CEM is a continuous in vitro culture of acute lymphoblastic leukemia. Cell line CCRF-CEM was grown in RPMI 1640 medium (Sigma-Aldrich, cat. No. R8758) supplemented with 2 mmol·l^−1 glutamine (Invitrogen, cat. No. 35050-038), 10% fetal bovine serum (FBS; Sigma-Aldrich, cat. No. F9665), 100 IU/ml penicillin, 100 μg/ml streptomycin (Sigma-Aldrich, cat. No. P0781). Passaging was carried out 2-3 times a week. Population doubling time of CCRF-CEM cells under the used culture conditions is 20 hours.
# For testing of the sensitivity of cell lines to studied helquats XTT cytotoxicity/proliferation assay for determination of cell viability was used. This method is based on the ability of metabolically active cells to reduce the yellow tetrazolium salt XTT to orange formazan. The rate of conversion is measured as the increase in absorbance at 492 nm and is proportional to the enzymatic activity of mitochondrial dehydrogenases and thus the number of metabolically active (viable) cells. The output is the IC50 value corresponding to the concentration of the test substance that causes a decrease in the number of viable cells by half (i.e. 50% slowdown of cell division) relative to the control, untreated population. Thus it reflects the effectiveness of the test substance towards the tested cell line.
# Cells in exponential growth phase were plated into 96-well microtiter plate at a concentration of 3000 cells per well. Each well contained 90 μl of cell suspension. The following day, 10 μl of 10× concentrated test substances was added. Effect of helquats has been studied in the concentration range 1-100 μmol·l^−1 (or 1, 2.5, 5, 7.5, 10; 15; 25; 50 and 100 μmol·l^−1). In addition to the part of the plate containing the mentioned dilutions of test compounds there were always two control columns present, first column with medium alone (i.e. blank) and the second column with the cells in medium without test compounds (control). Into the blank and control wells the same volume of solvent (water) as the volume of the substances was added. After 72 hours of treatment with substances the measurement of viability was performed according to the manufacturer instructions. Briefly, into each well of a 96-well microtiter plate 50 μl of the prepared working solution of XTT (detection reagent) was added and then the microtiter plate was returned to the CO2 incubator. After 2 hours, the absorbance of each well at 492 nm (reference wavelength 690 nm) was measured using a multifunctional microplate reader (Tecan Genios, Austria).
# The results of determination of the viability of cancer and normal cells after treatment with different concentrations of test substances are summarized in Table 9. […] Each concentration of a helquat was tested in triplicates within one IC50 value determination. Each of these IC50 value determinations was repeated in at least three independent experiments. Values above 100 μmol·l^−1 were obtained by extrapolation of data measured in the concentration range 0-100 μmol·l^−1 of helquats.
# HUVEC = test: XTT cytotoxicity/proliferation assay, HUVEC; format: cell-based, human; conditions: Homo sapiens, HUVEC
# Method: To assess the antiproliferative effects of the tested substances in vitro, tumor cell line CCRF-CEM derived from acute lymphoblastic leukemia and normal (healthy) HUVEC endothelial cells from umbilical vein were used. Both of these cell lines were cultured under optimal conditions for their growth in the appropriate medium in plastic bottles or plastic Petri dishes of various sizes (TPP, BD Biosciences) at 37° C., 5% CO2 and 95% humidity. HUVEC cells were purchased from BD Biosciences. CCRF-CEM cell line was obtained from ATCC/LGC Standards (American Type Cell Collection). Normal human endothelial cells from the umbilical vein are adherent cells, which were grown in plastic Petri dishes coated with collagen I. The culture medium (E-STIMTM; BD Biosciences, cat. […] Then, 5 ml of complete culture media E-STIM™ was added and the cells were centrifuged (180×g, 7 minutes), resuspended and transferred in a desired amount in a new Petri dish with fresh medium. In the experiments cells between passages 3 and 8 (after thawing) were used. Population doubling time of HUVEC cells under the used culture conditions is 38 hours. For testing of the sensitivity of cell lines to studied helquats XTT cytotoxicity/proliferation assay for determination of cell viability was used. This method is based on the ability of metabolically active cells to reduce the yellow tetrazolium salt XTT to orange formazan. The rate of conversion is measured as the increase in absorbance at 492 nm and is proportional to the enzymatic activity of mitochondrial dehydrogenases and thus the number of metabolically active (viable) cells. […] Thus it reflects the effectiveness of the test substance towards the tested cell line. Cells in exponential growth phase were plated into 96-well microtiter plate at a concentration of 3000 cells per well. Each well contained 90 μl of cell suspension. The following day, 10 μl of 10× concentrated test substances was added. […] In addition to the part of the plate containing the mentioned dilutions of test compounds there were always two control columns present, first column with medium alone (i.e. blank) and the second column with the cells in medium without test compounds (control). Into the blank and control wells the same volume of solvent (water) as the volume of the substances was added. After 72 hours of treatment with substances the measurement of viability was performed according to the manufacturer instructions. Briefly, into each well of a 96-well microtiter plate 50 μl of the prepared working solution of XTT (detection reagent) was added and then the microtiter plate was returned to the CO2 incubator. After 2 hours, the absorbance of each well at 492 nm (reference wavelength 690 nm) was measured using a multifunctional microplate reader (Tecan Genios, Austria).
# [1] = 72 hours of treatment, read-out: IC50 CCRF CEM
# [2] = 72 hours of treatment, values above 100 μmol·l^−1 obtained by extrapolation, read-out: IC50 HUVEC
SMILES,c-myc protein expression relative to control (control = 100%) (c-myc protein) [%],IC50 (CCRF-CEM; [1]) [µM],IC50 (HUVEC; [2]) [µM],"IC50 (CCRF-CEM; 72 hours, summary of table 9, read-out: concentrations toxic towards CCRF-CEM cells) [µM]","IC50 (HUVEC; 72 hours, summary of table 9, read-out: concentrations non-toxic towards HUVEC cells) [µM]"
"Cc1c(/C=C/c2cc3ccccc3[n+]3c2-c2c(ccc4c2-c2cccc[n+]2CCC4)CCC3)sc2ccccc12.O=S(=O)([O-])C(F)(F)F.O=S(=O)([O-])C(F)(F)F [MSC-C10-36, 19-((E)-2-(3-methylbenzo[b]thiophen-2-yl)vinyl)-6,7,8,11,12,13-hexahydropyrido[1′″,2′″:1″,2″]azepino[4″,3″:5′,6′]benzo[1′,2′:3,4]azepino[1,2-a]quinoline-5,14-diium trifluoromethanesulfonate]",85,≤ 10,≥ 51,,
"C(=C\c1cc2ccccc2o1)/c1cc(/C=C/c2cc3ccccc3o2)[n+]2c(c1)-c1c(ccc3c1-c1cccc[n+]1CC3)CC2.O=S(=O)([O-])C(F)(F)F.O=S(=O)([O-])C(F)(F)F [HTA-C9-17, 2,4-bis((E)-2-(benzofuran-2-yl)vinyl)-6,7,10,11-tetrahydrodipyrido[2,1-a:1′,2′-k][2,9]phenanthroline-5,12-diium trifluoromethanesulfonate]",44,26 to 50,≥ 51,,
"C(=C\c1ccc(-c2cccs2)s1)/c1cc(/C=C/c2ccc(-c3cccs3)s2)[n+]2c(c1)-c1c(ccc3c1-c1cccc[n+]1CC3)CC2.O=S(=O)([O-])C(F)(F)F.O=S(=O)([O-])C(F)(F)F [HTA-C9-16, 2,4-bis((E)-2-([2,2′-bithiophen]-5-yl)vinyl)-6,7,10,11-tetrahydrodipyrido[2,1-a:1′,2′-k][2,9]phenanthroline-5,12-diium trifluoromethanesulfonate]",32,11 to 25,26 to 50,,
"Brc1ccc2c(/C=C/c3cc4ccccc4[n+]4c3-c3c(ccc5c3-c3cccc[n+]3CCC5)CCC4)c[nH]c2c1.O=S(=O)([O-])C(F)(F)F.O=S(=O)([O-])C(F)(F)F [MSC-C9-18, 19-((E)-2-(6-bromo-1H-indol-3-yl)vinyl)-6,7,8,11,12,13-hexahydropyrido[1′″,2′″:1″,2″]azepino[4″,3″:5′,6′]benzo[1′,2′:3,4]azepino[1,2-a]quinoline-5,14-diium trifluoromethanesulfonate]",31,11 to 25,≥ 51,,
"C(=C\c1cc2ccccc2[n+]2c1-c1c(ccc3c1-c1cccc[n+]1CCC3)CCC2)/c1ccc(-c2cccs2)s1.O=S(=O)([O-])C(F)(F)F.O=S(=O)([O-])C(F)(F)F [MSC-C9-16, 19-((E)-2-([2,2′-bithiophen]-5-yl)vinyl)-6,7,8,11,12,13-hexahydropyrido[1′″,2′″:1″,2″]azepino[4″,3″:5′,6′]benzo[1′,2′:3,4]azepino[1,2-a]quinoline-5,14-diium trifluoromethanesulfonate]",36,≤ 10,≥ 100,< 25,> 100
